In patent US12558329B2 (New York University, priority 2021, dated 2026):
“Also recorded” adds a separate entry of the source.

Test system: MIAPACA2 cells
Assay: 18O2-GASSP labelling of MIAPACA2 cells treated with MG132, IOX1, DFO or ascorbate
Assay type: cell-based, human
Method: As additional controls, MIAPACA2 cells were treated with an iron chelator (DFO, FIG. 5E-5F), a proteasome inhibitor (MG132) to induce proteotoxic stress, and physiological levels of ascorbate, an antioxidant, to determine the effects of ROS on ^18O-labelling. Labelling of ^18O γ-butyrobetaine was blocked by IOX1 and DFO, consistent with the fact that trimethyllysine hydroxylase (TMLH) is an iron-dependent dioxygenase (FIGS. 7A-7D). […] Total levels of ^18O labelled methionine sulfoxide increased upon MG132 treatment and decreased following ascorbate treatment (FIGS. 7I-7M)^10.
All steps involved in setting up labelling with ^18O2 were performed at room temperature and inside a chemical fume hood. The procedure may vary depending on the type and number of tissue culture plates in the chamber and the amount of media in the plates. Users must test the system by using ^16O2:CO2:N2 or other unlabelled gases to optimize conditions for their needs and avoid consumption of costly labelled gases. Cells were treated with or without 5 μM MG132, 500 μM IOX1, 250 μM DFO, or 70 μM ascorbate, before placing tissue culture plates into the modular incubator chamber (MIC) containing a wireless oxygen sensor and a 15 cm dish of water to maintain humidity. Next, the clamps were closed to form an air-tight seal between the lid and platform of the MIC. […] N2 flushing was repeated for a total of three times, or until the sensor in the chamber stabilized at 0% O2 for 10 minutes.
Next, the inlet valve was opened and the ^18O2:5% CO2:N2 gaseous mixture was flushed into the system at a rate of 2.5 L/min. Subsequently, the outlet valve was immediately opened to allow gas flow out of the chamber, and to release the pressure in the system. The chamber was injected with the ^18O2:5% CO2:N2 gaseous mixture for 1 minute before the inlet and outlet valves were closed simultaneously. The chamber was allowed to equilibrate for 5 minutes. This process was repeated seven times, or until the desired oxygen concentration was reached and was stable. For 3%, 1%, and 0.2% ^18O2 labelling studies, the chamber was infused with 5%:5%:90%, 1.5%:5%:93.5%, and 0.5%:5%:94.5% ^18O2:CO2:N2, respectively. The ^18O2-infused MIC was then placed in a 37° C., 5% CO2 tissue culture incubator for 24 hours. The oxygen concentration in the chamber was monitored regularly. Oxygen measurements after 20 hours was not feasible due to the battery life of the sensor. At the end of the experiment, the chamber was opened inside a chemical fume hood before metabolite extraction.
For metabolomics, briefly, cells were washed in 4° C. 0.9% saline and metabolites were extracted with 46% methanol:23% H2O:[…] chloroform that contained a labelled amino acid standard mix (MSK-A2-1.2, Cambridge Isotope Laboratories, Inc.). Enzymatic assay samples were extracted using 80% methanol: 20% H2O that contained labelled amino acid standards. Extracts were placed into 1.5 mL Eppendorf tubes, vortexed at 4° C. for 10 min and centrifuged at 4° C. for 10 min at 17,200×g in a microcentrifuge. The aqueous phase was transferred to vials for GC-MS or Eppendorf tubes for LC-MS. Polar samples were evaporated in a SpeedVac and samples were resolved by GC-MS or LC-MS. Lipid samples were dried using a stream of N2 (for ^18O labelling studies) or air. Metabolite and lipid extracts were submitted to the NYULMC Metabolomics Core Resource Laboratory.
For polar metabolomics, the LC column was a Millipore ZIC-pHILIC (2.1×150 […], 5 μm bead size) coupled to a Dionex UltiMate 3000 system. The column oven temperature was held at 25° C. The flow rate was 100 μL/min, and the injection volume was 1 μL. Buffer A was 10 mM ammonium carbonate in water, pH 9, and Buffer B was neat acetonitrile. The gradient profile was 80-20% B (0-30 min), 20-80% B (30-31 min), and 80-80% B (31-42 min). MS Analyses were carried out on a Thermo Q Exactive HF mass spectrometer using a heated electrospray ionization (HESI) source. […]

O=C(O)c1ccc(O)c2ncccc12 [IOX1]
18O labelling of methionine (3%, 1%, 0.2% 18O2, 24 hours): sensitive; also recorded: blocked | 18O labelling of γ-butyrobetaine (3%, 1%, 0.2% 18O2, 24 hours): sensitive; also recorded: blocked | 18O labelling of 4-HMA (MIAPACA2, 3%, 1%, 0.2% 18O2, 24 hours, 500 μM IOX1, 250 μM DFO): sensitive; also recorded: significantly attenuated | 4-HMA levels (MIAPACA2, 18O2 labelling, 24 hours, 500 μM IOX1, 250 μM DFO, 70 μM ascorbate): significantly attenuated
